Laboratory results from patent publication US9844533B2, “Antioxidant-containing food composition for use in inhibiting histamine pathways in companion animals” (Hill's Pet Nutrition, Inc., priority 2008, dated 2017).

Tests used:
Type in all cases: cell-based
[1] = tested on: GAB2 (GRB2-associated-binding protein 2); test: Gene expression in four cat cell lines treated with or without lipoic acid (paired t test, GeneGo enrichment); conditions: Table 4; four cat cell lines with vs without lipoic acid; p<0.05
Protocol: (§1) The gene expression data from four cat cell lines treated with lipoic acid was analyzed.

[2] = tested on: ADCY2 (Adenylate cyclase type 2); test: Gene expression in four cat cell lines treated with or without lipoic acid; conditions: Table 5; four cat cell lines with vs without lipoic acid; p<0.05
Protocol: as §1

[3] = tested on: ADCY7 (Adenylate cyclase type 7); test: as above; conditions: Table 5; four cat cell lines with vs without lipoic acid; p<0.05
Protocol: as §1

[4] = tested on: LTC4S (Leukotriene C4 synthase); test: as above; conditions: Table 4; four cat cell lines with vs without lipoic acid; p<0.05
Protocol: as §1

[5] = tested on: MAP2K1 (Dual specificity mitogen-activated protein kinase 1); test: as above; conditions: Table 4; four cat cell lines with vs without lipoic acid; p<0.05
Protocol: as §1

[6] = tested on: MAPK1 (Mitogen-activated protein kinase 1); test: as above; conditions: four cat cell lines with vs without lipoic acid, p<0.05
Protocol: as §1

[7] = tested on: NOS3 (Nitric oxide synthase, endothelial); test: as above; conditions: Table 5; four cat cell lines with vs without lipoic acid; p<0.05
Protocol: as §1

[8] = tested on: PLA2G2F (Group IIFA2 secretory phospholipase precursor); test: as above; conditions: Table 5; four cat cell lines with vs without lipoic acid; p<0.05
Protocol: as §1

[9] = tested on: PNPLA8 (Calcium-independent phospholipase A2-gamma); test: as above; conditions: Table 5; four cat cell lines with vs without lipoic acid; p<0.05
Protocol: as §1

[10] = tested on: PRKAR1A (cAMP-dependent protein kinase type I-alpha regulatory subunit); test: as above; conditions: Table 5; four cat cell lines with vs without lipoic acid; p<0.05
Protocol: as §1

[11] = tested on: REL (C-Rel proto-oncogene protein); test: as above; conditions: Table 5; four cat cell lines with vs without lipoic acid; p<0.05
Protocol: as §1

[12] = tested on: RELA (Transcription factor p65); test: as above; conditions: Table 5; four cat cell lines with vs without lipoic acid; p<0.05
Protocol: as §1

[13] = tested on: TNF (Tumor necrosis factor precursor); test: as above; conditions: Table 5; four cat cell lines with vs without lipoic acid; p<0.05
Protocol: as §1

[14] = tested on: VCAM1 (Vascular cell adhesion protein 1 precursor); test: as above; conditions: Table 5; four cat cell lines with vs without lipoic acid; p<0.05
Protocol: as §1

[15] = tested on: histamine release and signaling pathways (gene networks); test: Gene network enrichment analysis of cat cell lines treated with lipoic acid; conditions: four cat cell lines treated with lipoic acid
Protocol: as §1

## O=C(O)CCCCC1CCSS1 (stereo not drawn) [lipoic acid, alpha-lipoic acid]
[1]
  Signal (GAB2 gene expression change): −0.8668
[2]
  Signal (ADCY2 gene expression change): 0.3925
[3]
  Signal (ADCY7 gene expression change): 0.3988
[4]
  Signal (LTC4S gene expression change): −0.4586
[5]
  Signal (MAP2K1 gene expression change): −0.1574
[6]; Table 4
  Signal (MAPK1 gene expression change): −0.3117
[6]; Table 5
  Signal (MAPK1 gene expression change): −0.3117
[7]
  Signal (NOS3 gene expression change): −0.5503
[8]
  Signal (PLA2G2F gene expression change): 1.061
[9]
  Signal (PNPLA8 gene expression change): −0.2652
[10]
  Signal (PRKAR1A gene expression change): −0.184
[11]
  Signal (REL gene expression change): −0.4264
[12]
  Signal (RELA gene expression change): −0.429
[13]
  Signal (TNF gene expression change): 0.1797
[14]
  Signal (VCAM1 gene expression change): −0.7819|
[15]
  Regulation of key genes in histamine and IgE signaling networks: down regulated
